# Laboratory results from patent US20260297042A1, “BIARYLAMIDE DERIVATIVES AND THEIR USE AS PKMYT1 INHIBITORS” (CANCER RESEARCH TECHNOLOGY LIMITED, priority 2023, published 2026).
# Counter-ions that a name gives are not always drawn.
# Legend:
# WEE1 = target: T1, WEE1 (Homo sapiens, UniProt P30291); assay: Selectivity versus WEE1 assay (ADP-Glo enzymatic assay); type: biochemical; settings: for IC50: WEE1 15 nM, ADP-Glo, banded values; for PKMYT1 vs. WEE1 selectivity: fold difference in selectivity for PKMYT1 over WEE1, banded
# T1 construct: purchased Thermo Fisher PR7373A
# How it was run: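 Inhibition is measured as reduced ADP production, detected by luminescence with ADP-Glo, after enzyme (15 nM) and 30 µM ATP react for 60 min at 26° C in 1% DMSO-containing HEPES buffer, pH 7.5. Data are accepted only if replicate IC50s fall within 3-fold and r2 exceeds 0.9.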
# KYSE-30 cells = assay: Cancer cell line proliferation assay, ATP-based cell viability (Cell Titre Glow), KYSE-30 (normal CCNE1); settings: Homo sapiens, KYSE-30 cells (normal CCNE1), concentration that achieves 50% cell growth proliferation inhibition, read-out: KYSE30 Gl50
# How it was run: (§1)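 GI50 reflects half-maximal growth inhibition by PKMYT1 inhibitors, derived by curve fitting of CellTiter-Glo luminescence signals.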
# Human PKMYT1 = target: T2, Human PKMYT1 (Homo sapiens, UniProt Q99640); assay: PKMYT1 biochemical ADP-Glo enzymatic assay; settings: PKMYT1 kinase domain 15 nM; ADP-Glo; banded values
# T2 construct: Human PKMYT1 75-362 was cloned as a TEV cleavable 6xHis fusion; 6xHis (TEV cleavable) (cleaved yes); made in house; host or cells: bacterial cells
# T2 sequence (Q99640 75-362): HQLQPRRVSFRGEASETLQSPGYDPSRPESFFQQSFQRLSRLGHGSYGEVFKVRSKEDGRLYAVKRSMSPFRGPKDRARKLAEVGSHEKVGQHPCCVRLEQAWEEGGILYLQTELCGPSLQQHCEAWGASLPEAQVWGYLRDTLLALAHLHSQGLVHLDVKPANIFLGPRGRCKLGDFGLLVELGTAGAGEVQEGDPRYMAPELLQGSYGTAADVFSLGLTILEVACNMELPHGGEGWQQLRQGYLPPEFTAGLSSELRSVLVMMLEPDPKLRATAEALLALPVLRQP
# How it was run: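 IC50 derived from luminescence (ADP-Glo Max) after PKMYT1 kinase domain, 15 nM, turned over 500 µM ATP for 60 min at 26 °C. Buffer contained 10 mM MgCl2, 1 mM EGTA and 0.01% Brij-35 at pH 7.5.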
# OVCAR 3 cells = assay: Cancer cell line proliferation assay, ATP-based cell viability (Cell Titre Glow), OVCAR 3 (CCNE1-amplified); settings: KYSE30 (normal CCNE1) GI50 vs. OVCAR 3 (CCNE1-amplified) GI50
# How it was run: as §1
# [1] = target: T3, Cellular PKMYT1 Biomarker CDK1 pT14 (Homo sapiens, UniProt Q99640); assay: Inhibition of cellular PKMYT1 biomarker CDK1 pT14 in OVCAR 3 cells (immunoblot); type: cell-based; settings: 20 hours incubation
# T3 construct: read-out CDK1 phospho-T14 immunoblot
# T3 sequence (Q99640 1-499): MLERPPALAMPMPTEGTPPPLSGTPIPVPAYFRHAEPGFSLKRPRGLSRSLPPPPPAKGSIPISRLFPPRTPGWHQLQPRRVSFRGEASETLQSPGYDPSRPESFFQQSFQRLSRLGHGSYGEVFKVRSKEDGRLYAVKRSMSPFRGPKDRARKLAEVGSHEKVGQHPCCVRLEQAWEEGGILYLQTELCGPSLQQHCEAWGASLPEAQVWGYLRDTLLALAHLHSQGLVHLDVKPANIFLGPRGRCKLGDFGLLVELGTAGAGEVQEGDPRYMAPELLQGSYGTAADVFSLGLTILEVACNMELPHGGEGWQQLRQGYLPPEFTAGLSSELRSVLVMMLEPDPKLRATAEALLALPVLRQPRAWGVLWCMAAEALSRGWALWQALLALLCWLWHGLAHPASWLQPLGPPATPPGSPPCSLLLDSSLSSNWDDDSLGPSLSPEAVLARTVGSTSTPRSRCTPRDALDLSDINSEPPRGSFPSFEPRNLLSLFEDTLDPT
# How it was run: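 Confluent OVCAR 3 cells treated with a compound concentration range for 20 h at 37 °C. Lysates analysed by automated capillary immunoblot for CDK1 phospho-T14, with vinculin, fluorescence detection; IC50 by regression.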
# T1 sequence (P30291 whole entry): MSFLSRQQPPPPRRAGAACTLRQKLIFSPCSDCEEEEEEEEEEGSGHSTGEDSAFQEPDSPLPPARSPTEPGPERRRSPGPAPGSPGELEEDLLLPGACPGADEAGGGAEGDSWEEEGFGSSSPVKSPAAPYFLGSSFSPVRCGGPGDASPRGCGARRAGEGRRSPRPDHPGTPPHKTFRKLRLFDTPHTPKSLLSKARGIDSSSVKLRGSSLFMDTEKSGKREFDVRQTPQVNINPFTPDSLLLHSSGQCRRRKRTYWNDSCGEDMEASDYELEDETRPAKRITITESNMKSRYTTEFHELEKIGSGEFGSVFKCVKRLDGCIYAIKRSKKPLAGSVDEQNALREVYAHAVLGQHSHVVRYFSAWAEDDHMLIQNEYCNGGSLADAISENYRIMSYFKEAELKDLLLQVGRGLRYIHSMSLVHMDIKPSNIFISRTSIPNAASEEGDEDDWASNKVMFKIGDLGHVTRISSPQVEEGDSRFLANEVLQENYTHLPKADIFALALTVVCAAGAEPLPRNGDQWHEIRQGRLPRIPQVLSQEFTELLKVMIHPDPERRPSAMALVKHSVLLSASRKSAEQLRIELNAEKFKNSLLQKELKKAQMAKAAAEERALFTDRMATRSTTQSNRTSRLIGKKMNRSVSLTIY
Structure (SMILES),IC50 (WEE1),PKMYT1 vs. WEE1 selectivity (WEE1),IC50 (Human PKMYT1),IC50 [1],GI50 (KYSE-30 cells),Selectivity ratio KYSE30 Gl50 vs. OVCAR3 Gl50 (OVCAR 3 cells)
"Cc1cn(C(CO)C(=O)N2CCCC2C(F)(F)F)nc1Nc1ncc(C(=O)Nc2c(C)ccc(O)c2C)s1 (stereo not drawn) [BAA-578, 2-((1-(3-hydroxy-1-oxo-1-(2-(trifluoromethyl)pyrrolidin-1-yl)propan-2-yl)-4-methyl-1H-pyrazol-3-yl)amino)-N-(3-hydroxy-2,6-dimethylphenyl)thiazole-5-carboxamide]",1 to 11 µM,X (100-<1000 fold),< 0.05 µM,< 0.1 µM,> 5 µM,Y (>20 fold)
"Cc1ccc(O)c(C)c1NC(=O)c1cnc(Nc2cc(N3CCN(C)CC3)ncn2)s1 [BAA-581, N-(3-hydroxy-2,6-dimethylphenyl)-2-((6-(4-methylpiperazin-1-yl)pyrimidin-4-yl)amino)thiazole-5-carboxamide]",0.05 to 1 µM,W (10-<100 fold),< 0.05 µM,< 0.1 µM,> 5 µM,Y (>20 fold)
"Cc1cn(C(CO)C(=O)N2CCCC2)nc1Nc1ncc(C(=O)Nc2c(C)ccc(O)c2C)s1 (stereo not drawn) [BAA-583, 2-((1-(3-Hydroxy-1-oxo-1-(pyrrolidin-1-yl)propan-2-yl)-4-methyl-1H-pyrazol-3-yl)amino)-N-(3-hydroxy-2,6-dimethylphenyl)thiazole-5-carboxamide]",1 to 11 µM,X (100-<1000 fold),< 0.05 µM,< 0.1 µM,> 5 µM,Y (>20 fold)
"Cc1cn(CC#N)nc1Nc1ncc(C(=O)Nc2c(C)ccc(O)c2Br)s1 [BAA-584, N-(2-Bromo-3-hydroxy-6-methylphenyl)-2-((1-(cyanomethyl)-4-methyl-1H-pyrazol-3-yl)amino)thiazole-5-carboxamide]",0.05 to 1 µM,W (10-<100 fold),< 0.05 µM,0.1 to 1 µM,> 5 µM,Y (>20 fold)
"Cc1cn(C(CO)C(=O)N(C)C2CC2)nc1Nc1ncc(C(=O)Nc2c(C)ccc(O)c2C)s1 (stereo not drawn) [BAA-591, 2-((1-(1-(cyclopropyl(methyl)amino)-3-hydroxy-1-oxopropan-2-yl)-4-methyl-1H-pyrazol-3-yl)amino)-N-(3-hydroxy-2,6-dimethylphenyl)thiazole-5-carboxamide]",1 to 11 µM,X (100-<1000 fold),< 0.05 µM,< 0.1 µM,> 5 µM,Y (>20 fold)
"CCN(C(=O)C(CO)n1cc(C)c(Nc2ncc(C(=O)Nc3c(C)ccc(O)c3C)s2)n1)C1CC1 (stereo not drawn) [BAA-592, 2-((1-(1-(cyclopropyl(ethyl)amino)-3-hydroxy-1-oxopropan-2-yl)-4-methyl-1H-pyrazol-3-yl)amino)-N-(3-hydroxy-2,6-dimethylphenyl)thiazole-5-carboxamide]",1 to 11 µM,X (100-<1000 fold),< 0.05 µM,< 0.1 µM,> 5 µM,Y (>20 fold)
"Cc1cn(CC(=O)N(C)C2CCC2)nc1Nc1ncc(C(=O)Nc2c(C)ccc(O)c2C)s1 [BAA-595, 2-((1-(2-(cyclobutyl(methyl)amino)-2-oxoethyl)-4-methyl-1H-pyrazol-3-yl)amino)-N-(3-hydroxy-2,6-dimethylphenyl)thiazole-5-carboxamide]",1 to 11 µM,X (100-<1000 fold),< 0.05 µM,< 0.1 µM,> 5 µM,Y (>20 fold)
"Cc1ccc(O)c(C)c1NC(=O)c1cnc(Nc2ccc3ncccc3n2)s1 [BAA-596, 2-((1,5-naphthyridin-2-yl)amino)-N-(3-hydroxy-2,6-dimethylphenyl)thiazole-5-carboxamide]",> 11 µM,Y (1000-5000 fold),< 0.05 µM,0.1 to 1 µM,0.5 to 5 µM,Y (>20 fold)

# Continued, in another order:
IC50 (WEE1),PKMYT1 vs. WEE1 selectivity (WEE1),IC50 (Human PKMYT1),IC50 [1],Structure (SMILES),GI50 (KYSE-30 cells),Selectivity ratio KYSE30 Gl50 vs. OVCAR3 Gl50 (OVCAR 3 cells)
1 to 11 µM,X (100-<1000 fold),< 0.05 µM,< 0.1 µM,"Cc1ccc(O)c(C)c1NC(=O)c1cnc(Nc2nn(CCF)cc2Cl)s1 [BAA-582, 2-((4-chloro-1-(2-fluoroethyl)-1H-pyrazol-3-yl)amino)-N-(3-hydroxy-2,6-dimethylphenyl)thiazole-5-carboxamide]",0.5 to 5 µM,Y (>20 fold)
1 to 11 µM,X (100-<1000 fold),< 0.05 µM,< 0.1 µM,"Cc1ccc(O)c(C)c1NC(=O)c1cnc(Nc2nn(CCF)cc2Br)s1 [BAA-585, 2-((4-bromo-1-(2-fluoroethyl)-1H-pyrazol-3-yl)amino)-N-(3-hydroxy-2,6-dimethylphenyl)thiazole-5-carboxamide]",0.5 to 5 µM,Y (>20 fold)
0.05 to 1 µM,W (10-<100 fold),< 0.05 µM,< 0.1 µM,"Cc1ccc(O)c(C)c1NC(=O)c1cnc(Nc2nn(CC#N)cc2Br)s1 [BAA-586, 2-((4-bromo-1-(cyanomethyl)-1H-pyrazol-3-yl)amino)-N-(3-hydroxy-2,6-dimethylphenyl)thiazole-5-carboxamide]",0.5 to 5 µM,X (3-20 fold)
1 to 11 µM,X (100-<1000 fold),< 0.05 µM,< 0.1 µM,"Cc1ccc(O)c(C)c1NC(=O)c1cnc(Nc2nn(CC(F)F)cc2Br)s1 [BAA-587, 2-((4-bromo-1-(2,2-difluoroethyl)-1H-pyrazol-3-yl)amino)-N-(3-hydroxy-2,6-dimethylphenyl)thiazole-5-carboxamide]",0.5 to 5 µM,Y (>20 fold)
1 to 11 µM,X (100-<1000 fold),< 0.05 µM,< 0.1 µM,"CCc1cn(CCF)nc1Nc1ncc(C(=O)Nc2c(C)ccc(O)c2C)s1 [BAA-588, 2-((4-ethyl-1-(2-fluoroethyl)-1H-pyrazol-3-yl)amino)-N-(3-hydroxy-2,6-dimethylphenyl)thiazole-5-carboxamide]",0.5 to 5 µM,Y (>20 fold)
1 to 11 µM,X (100-<1000 fold),< 0.05 µM,< 0.1 µM,"CCc1cn(CC(F)F)nc1Nc1ncc(C(=O)Nc2c(C)ccc(O)c2C)s1 [BAA-589, 2-((1-(2,2-difluoroethyl)-4-ethyl-1H-pyrazol-3-yl)amino)-N-(3-hydroxy-2,6-dimethylphenyl)thiazole-5-carboxamide]",> 5 µM,Y (>20 fold)
0.05 to 1 µM,W (10-<100 fold),< 0.05 µM,< 0.1 µM,"CCc1cn(CC#N)nc1Nc1ncc(C(=O)Nc2c(C)ccc(O)c2C)s1 [BAA-590, 2-((1-(cyanomethyl)-4-ethyl-1H-pyrazol-3-yl)amino)-N-(3-hydroxy-2,6-dimethylphenyl)thiazole-5-carboxamide. TFA salt]",> 5 µM,Y (>20 fold)
1 to 11 µM,X (100-<1000 fold),< 0.05 µM,< 0.1 µM,"CCc1c[nH]nc1Nc1ncc(C(=O)Nc2c(C)ccc(O)c2C)s1 [BAA-594, 2-((4-Ethyl-1H-pyrazol-3-yl)amino)-N-(3-hydroxy-2,6-dimethylphenyl)thiazole-5-carboxamide]",> 5 µM,Y (>20 fold)
